The target in one assay is T1, SMARCA2 (Homo sapiens, UniProt P51531).
T1 construct: SMARCA2-HiBiT knock-in Hela monoclonal cell (CS302366); host or cells: HeLa monoclonal cells with heterozygous HiBiT knock-in at the endogenous SMARCA2 locus
The assay can be described thus: SMARCA2 HiBiT degradation assay in HeLa cells. Format: cell-based. Particulars: 18 hours, highest concentration 10 μM. The procedure, abridged:
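Degradation was read as Nano-Glo HiBiT lytic luminescence (30-60 min, RT) and fitted to curves. Compounds in 3-fold dilutions up to 10 μM were applied for 18 h at 37 °C. Cells were 2500/well monoclonal HeLa with a heterozygous C-terminal HiBiT tag on SMARCA2.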
For orientation: HiBiT is a short tag that completes a luciferase, so light tracks the accessible tagged protein.

A further assay concerns the target T2, SMARCA4 (Homo sapiens, UniProt P51532).
T2 construct: SMARCA4-HiBiT knock-in Hela monoclonal cell (CS3023226); host or cells: HeLa monoclonal cells with heterozygous HiBiT knock-in at the endogenous SMARCA4 locus
Kind of assay: SMARCA4 HiBiT degradation assay in HeLa cells. The assay is classed as cell-based. Particulars: 18 hours, highest concentration 10 μM. The procedure, abridged:
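HeLa monoclonal cells with HiBiT knocked into SMARCA4 were seeded at 2500 cells/well, dosed with compound and incubated 18 hours at 37° C. HiBiT signal reported remaining SMARCA4 protein, and values came from curve fitting.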

The structures appear in SMILES notation. Some results are limits rather than exact numbers.

T1 sequence (P51531 whole entry): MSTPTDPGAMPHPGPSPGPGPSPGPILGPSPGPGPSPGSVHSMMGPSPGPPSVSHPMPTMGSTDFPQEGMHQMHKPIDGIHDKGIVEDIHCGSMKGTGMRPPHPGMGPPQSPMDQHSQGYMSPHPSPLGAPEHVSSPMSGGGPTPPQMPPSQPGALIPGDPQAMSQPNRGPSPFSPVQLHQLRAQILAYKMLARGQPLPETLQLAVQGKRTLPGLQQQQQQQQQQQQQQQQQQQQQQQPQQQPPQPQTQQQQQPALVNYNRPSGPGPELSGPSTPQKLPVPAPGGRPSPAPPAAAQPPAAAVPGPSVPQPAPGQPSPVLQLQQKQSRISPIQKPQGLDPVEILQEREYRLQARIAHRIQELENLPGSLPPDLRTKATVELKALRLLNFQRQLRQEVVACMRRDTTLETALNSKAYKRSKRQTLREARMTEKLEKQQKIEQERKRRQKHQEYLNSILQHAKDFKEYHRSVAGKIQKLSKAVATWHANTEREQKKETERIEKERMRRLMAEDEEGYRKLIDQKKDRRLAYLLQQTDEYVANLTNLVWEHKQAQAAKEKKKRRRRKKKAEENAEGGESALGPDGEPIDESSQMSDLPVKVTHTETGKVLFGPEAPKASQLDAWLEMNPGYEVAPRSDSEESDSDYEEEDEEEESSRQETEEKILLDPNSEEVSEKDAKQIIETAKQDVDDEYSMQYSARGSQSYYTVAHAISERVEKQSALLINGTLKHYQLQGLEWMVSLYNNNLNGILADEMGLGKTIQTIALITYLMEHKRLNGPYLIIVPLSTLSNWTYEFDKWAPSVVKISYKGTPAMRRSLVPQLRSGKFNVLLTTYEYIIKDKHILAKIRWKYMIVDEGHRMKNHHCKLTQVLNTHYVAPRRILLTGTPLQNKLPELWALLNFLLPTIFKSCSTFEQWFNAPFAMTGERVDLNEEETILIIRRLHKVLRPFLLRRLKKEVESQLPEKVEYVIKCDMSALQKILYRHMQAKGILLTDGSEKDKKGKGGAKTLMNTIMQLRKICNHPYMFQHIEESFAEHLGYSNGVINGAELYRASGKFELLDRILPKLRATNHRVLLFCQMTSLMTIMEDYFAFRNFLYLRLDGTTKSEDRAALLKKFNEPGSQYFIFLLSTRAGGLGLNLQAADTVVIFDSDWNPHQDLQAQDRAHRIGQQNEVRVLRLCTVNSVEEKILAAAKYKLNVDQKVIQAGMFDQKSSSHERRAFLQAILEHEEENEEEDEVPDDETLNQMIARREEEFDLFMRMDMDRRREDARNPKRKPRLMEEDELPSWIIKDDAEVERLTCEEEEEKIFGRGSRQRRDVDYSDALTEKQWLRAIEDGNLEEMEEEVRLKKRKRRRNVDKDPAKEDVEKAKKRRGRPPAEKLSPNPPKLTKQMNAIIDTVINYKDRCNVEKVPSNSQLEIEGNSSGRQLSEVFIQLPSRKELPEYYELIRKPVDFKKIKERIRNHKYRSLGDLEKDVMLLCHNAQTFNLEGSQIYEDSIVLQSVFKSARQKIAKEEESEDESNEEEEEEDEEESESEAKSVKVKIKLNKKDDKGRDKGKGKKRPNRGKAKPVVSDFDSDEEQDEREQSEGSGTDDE
T2 sequence (P51532 whole entry): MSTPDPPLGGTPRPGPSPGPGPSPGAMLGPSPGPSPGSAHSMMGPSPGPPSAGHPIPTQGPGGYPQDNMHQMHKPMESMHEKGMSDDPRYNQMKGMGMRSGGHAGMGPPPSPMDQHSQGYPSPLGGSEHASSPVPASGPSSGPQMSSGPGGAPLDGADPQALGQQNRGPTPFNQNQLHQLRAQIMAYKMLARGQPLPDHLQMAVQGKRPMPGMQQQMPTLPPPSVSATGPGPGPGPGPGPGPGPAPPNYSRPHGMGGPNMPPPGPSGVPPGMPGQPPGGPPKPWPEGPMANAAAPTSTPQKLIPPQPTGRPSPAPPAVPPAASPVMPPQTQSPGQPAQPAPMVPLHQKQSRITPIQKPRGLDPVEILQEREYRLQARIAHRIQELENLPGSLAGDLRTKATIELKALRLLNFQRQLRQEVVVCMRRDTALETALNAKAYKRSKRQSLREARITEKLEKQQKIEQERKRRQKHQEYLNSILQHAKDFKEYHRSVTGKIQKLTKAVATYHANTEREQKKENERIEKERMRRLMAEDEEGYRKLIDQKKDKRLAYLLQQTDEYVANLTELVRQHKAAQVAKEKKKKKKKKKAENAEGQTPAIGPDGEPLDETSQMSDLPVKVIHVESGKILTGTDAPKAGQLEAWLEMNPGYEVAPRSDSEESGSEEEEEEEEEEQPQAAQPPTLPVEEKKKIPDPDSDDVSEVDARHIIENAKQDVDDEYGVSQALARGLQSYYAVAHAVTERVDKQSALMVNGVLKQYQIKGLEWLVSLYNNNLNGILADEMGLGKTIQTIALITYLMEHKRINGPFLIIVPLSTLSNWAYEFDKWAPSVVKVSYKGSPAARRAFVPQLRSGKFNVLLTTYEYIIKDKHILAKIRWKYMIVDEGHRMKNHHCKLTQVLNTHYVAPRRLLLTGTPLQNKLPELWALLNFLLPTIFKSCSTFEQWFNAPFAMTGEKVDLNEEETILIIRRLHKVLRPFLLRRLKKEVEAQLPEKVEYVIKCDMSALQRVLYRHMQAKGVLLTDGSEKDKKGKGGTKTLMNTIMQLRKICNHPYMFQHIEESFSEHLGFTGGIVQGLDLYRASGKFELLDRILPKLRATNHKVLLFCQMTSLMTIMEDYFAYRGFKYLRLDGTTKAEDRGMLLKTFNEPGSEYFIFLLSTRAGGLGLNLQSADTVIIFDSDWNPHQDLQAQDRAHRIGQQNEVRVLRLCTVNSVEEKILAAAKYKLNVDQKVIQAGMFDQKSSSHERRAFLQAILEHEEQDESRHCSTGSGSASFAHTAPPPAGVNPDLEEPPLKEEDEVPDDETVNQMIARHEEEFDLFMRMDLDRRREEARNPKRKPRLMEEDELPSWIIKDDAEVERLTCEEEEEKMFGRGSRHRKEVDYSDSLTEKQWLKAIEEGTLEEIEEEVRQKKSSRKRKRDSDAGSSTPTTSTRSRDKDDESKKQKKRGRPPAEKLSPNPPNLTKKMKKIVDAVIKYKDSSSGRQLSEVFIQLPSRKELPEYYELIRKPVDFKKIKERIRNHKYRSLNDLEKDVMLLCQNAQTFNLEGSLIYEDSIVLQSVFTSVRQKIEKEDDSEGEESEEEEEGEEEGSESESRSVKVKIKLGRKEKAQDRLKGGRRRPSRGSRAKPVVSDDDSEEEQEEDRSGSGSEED

With `Cc1cc(O[C@@H]2C[C@H]3CNc4nnc(-c5cccc(F)c5O)cc4N3C2)ccc1CN1CCC(c2ccc3c(c2)C(=O)N(C2CCC(=O)NC2=O)C3)CC1` (stereo partly drawn) [Example 37, 3-(6-(1-(4-(((6aS,8R)-2-(3-fluoro-2-hydroxyphenyl)-5,6,6a,7,8,9-hexahydropyrrolo[1′,2′:4,5]pyrazino[2,3-c]pyridazin-8-yl)oxy)-2-methylbenzyl)piperidin-4-yl)-1-oxoisoindolin-2-yl)piperidine-2,6-dione], the DC50 on SMARCA2 and at SMARCA4 was less than 100 nM throughout. The maximal degradation (Dmax) on SMARCA2 and on SMARCA4 was more than 75% in each case.
In the case of `Cc1cc(O[C@H]2CN3c4cc(-c5cccc(F)c5O)nnc4NC[C@@]3(C)C2)cnc1CN1CCN(c2ccc3c(c2)C(=O)N([C@H]2CCC(=O)NC2=O)C3)CC1` [Example 81, (S)-3-(6-(4-((5-(((6aR,8R)-2-(3-fluoro-2-hydroxyphenyl)-6a-methyl-5,6,6a,7,8,9-hexahydropyrrolo[1′,2′:4,5]pyrazino[2,3-c]pyridazin-8-yl)oxy)-3-methylpyridin-2-yl)methyl)piperazin-1-yl)-1-oxoisoindolin-2-yl)piperidine-2,6-dione], on SMARCA2, the DC50 – broadly, the concentration at which degradation of the target reaches its halfway point – was less than 100 nM and the greatest degradation seen (Dmax) (commonly the largest share of the target that was removed) was more than 75%. Besides, on SMARCA4, the DC50 was in the range of 100 to 1000 nM and the Dmax is less than 50%.
At SMARCA2, `CC[C@]12CNc3nnc(-c4cccc(F)c4O)cc3N1C[C@H](Oc1cnc(CN3CCN(c4ccc5c(c4)CN([C@H]4CCC(=O)NC4=O)C5=O)CC3)c(C)c1)C2` [Example 74, (S)-3-(5-(4-((5-(((6aS,8R)-6a-ethyl-2-(3-fluoro-2-hydroxyphenyl)-5,6,6a,7,8,9-hexahydropyrrolo[1′,2′:4,5]pyrazino[2,3-c]pyridazin-8-yl)oxy)-3-methylpyridin-2-yl)methyl)piperazin-1-yl)-1-oxoisoindolin-2-yl)piperidine-2,6-dione] came in with a DC50 of less than 100 nM and a Dmax of more than 75%. At SMARCA4, this compound displayed a half-maximal degradation concentration (DC50) of less than 100 nM and a Dmax of more than 75%.
On SMARCA2, `O=C1CCC(N2Cc3ccc(N4CCN(Cc5ccc(O[C@@H]6C[C@@H]7CNc8nnc(-c9cc(F)cc(F)c9O)cc8N7C6)cc5F)CC4)cc3C2=O)C(=O)N1` (stereo partly drawn) [Example 13, 3-(6-(4-(4-(((6aR,8R)-2-(3,5-difluoro-2-hydroxyphenyl)-5,6,6a,7,8,9-hexahydropyrrolo[1′,2′:4,5]pyrazino[2,3-c]pyridazin-8-yl)oxy)-2-fluorobenzyl)piperazin-1-yl)-1-oxoisoindolin-2-yl)piperidine-2,6-dione] gave a 50% degradation concentration (DC50) of less than 100 nM and a Dmax of more than 75%. On SMARCA4, this compound returned a half-maximal degradation concentration (DC50) of less than 100 nM and a Dmax of more than 75%.
At SMARCA2, `O=C1CCC(N2Cc3ccc(N4CCN(Cc5ccc(O[C@@H]6C[C@@H]7CNc8nnc(-c9cc(F)cc(F)c9O)cc8N7C6)c(Cl)c5)CC4)cc3C2=O)C(=O)N1` (stereo partly drawn) [Example 6, 3-(6-(4-(3-chloro-4-(((6aR,8R)-2-(3,5-difluoro-2-hydroxyphenyl)-5,6,6a,7,8,9-hexahydropyrrolo[1′,2′:4,5]pyrazino[2,3-c]pyridazin-8-yl)oxy)benzyl)piperazin-1-yl)-1-oxoisoindolin-2-yl)piperidine-2,6-dione] showed a half-maximal degradation concentration (DC50) of less than 100 nM and a Dmax of more than 75%. Further, at SMARCA4, the DC50 is less than 100 nM and the Dmax is more than 75%.
Take `CC[C@@]12CNc3nnc(-c4cccc(F)c4O)cc3N1C[C@H](Oc1cc(C)c(CN3CCN(c4ccc5c(c4)C(=O)N(C4CCC(=O)NC4=O)C5)CC3)c(C)n1)C2` (stereo partly drawn) [Example 62, 3-(6-(4-((6-(((6aR,8R)-6a-ethyl-2-(3-fluoro-2-hydroxyphenyl)-5,6,6a,7,8,9-hexahydropyrrolo[1′,2′:4,5]pyrazino[2,3-c]pyridazin-8-yl)oxy)-2,4-dimethylpyridin-3-yl)methyl)piperazin-1-yl)-1-oxoisoindolin-2-yl)piperidine-2,6-dione]: the figures for the DC50 on SMARCA2 and on SMARCA4 were less than 100 nM and 100 to 1000 nM, respectively. Further, the Dmax at SMARCA2 was more than 75%; at SMARCA4, less than 50%.
The matching figures for `CC[C@]12CNc3nnc(-c4cccc(C)c4O)cc3N1C[C@H](Oc1nc(C)c(CN3CCC(c4ccc5c(c4)C(=O)N([C@H]4CCC(=O)NC4=O)C5)CC3)c(C)n1)C2` [Example 96, (S)-3-(6-(1-((2-(((6aS,8R)-6a-ethyl-2-(2-hydroxy-3-methylphenyl)-5,6,6a,7,8,9-hexahydropyrrolo[1′,2′:4,5]pyrazino[2,3-c]pyridazin-8-yl)oxy)-4,6-dimethylpyrimidin-5-yl)methyl)piperidin-4-yl)-1-oxoisoindolin-2-yl)piperidine-2,6-dione]: less than 100 nM, 100 to 1000 nM, more than 75% and less than 50%.
On to `O=C1CC[C@H](N2Cc3ccc(N4CCN(Cc5ccc(O[C@@H]6C[C@@H]7CNc8nnc(-c9cccc(Cl)c9O)cc8N7C6)cc5)CC4)cc3C2=O)C(=O)N1` [Example 25, (S)-3-(6-(4-(4-(((6aR,8R)-2-(3-chloro-2-hydroxyphenyl)-5,6,6a,7,8,9-hexahydropyrrolo[1′,2′:4,5]pyrazino[2,3-c]pyridazin-8-yl)oxy)benzyl)piperazin-1-yl)-1-oxoisoindolin-2-yl)piperidine-2,6-dione], for which, at SMARCA2, the DC50 is less than 100 nM and the Dmax is more than 75%. In addition, on SMARCA4, the 50% degradation concentration (DC50) was less than 100 nM and the maximal degradation (Dmax) is more than 75%.
Take `CCc1cc(CN2CCN(c3ccc4c(c3)C(=O)N([C@H]3CCC(=O)NC3=O)C4)CC2)cnc1O[C@H]1CN2c3cc(-c4cccc(F)c4O)nnc3NC[C@]2(C(F)F)C1` [Example 47, (S)-3-(6-(4-((6-(((6aS,8R)-6a-(difluoromethyl)-2-(3-fluoro-2-hydroxyphenyl)-5,6,6a,7,8,9-hexahydropyrrolo [1′,2′:4,5]pyrazino[2,3-c]pyridazin-8-yl)oxy)-5-ethylpyridin-3-yl)methyl)piperazin-1-yl)-1-oxoisoindolin-2-yl)piperidine-2,6-dione]: on SMARCA2, the DC50 was less than 100 nM and the greatest degradation seen (Dmax) is more than 75%. In addition, on SMARCA4, the half-maximal degradation concentration (DC50) is less than 100 nM and the greatest degradation seen (Dmax) was more than 75%.
For the compound `Cc1cc(O[C@@H]2C[C@@H]3CNc4nnc(-c5cccc(C)c5O)cc4N3C2)ccc1CN1CCN(c2ccc3c(c2)C(=O)N(C2CCC(=O)NC2=O)C3)CC1` (stereo partly drawn) [Example 20, 3-(6-(4-(4-(((6aR,8R)-2-(2-hydroxy-3-methylphenyl)-5,6,6a,7,8,9-hexahydropyrrolo[1′,2′:4,5]pyrazino[2,3-c]pyridazin-8-yl)oxy)-2-methylbenzyl)piperazin-1-yl)-1-oxoisoindolin-2-yl)piperidine-2,6-dione], on SMARCA2, the DC50 was less than 100 nM and the Dmax was more than 75%. Also, on SMARCA4, the DC50 is more than 1000 nM and the maximal degradation (Dmax) was less than 50%.
Taken in the same sequence, the figures for `Cc1nc(O[C@H]2CN3c4cc(-c5cccc(F)c5O)nnc4NC[C@]3(CF)C2)c(F)cc1CN1CCN(c2ccc3c(c2)C(=O)N([C@H]2CCC(=O)NC2=O)C3)CC1` [Example 69, (S)-3-(6-(4-((5-fluoro-6-(((6aS,8R)-2-(3-fluoro-2-hydroxyphenyl)-6a-(fluoromethyl)-5,6,6a,7,8,9-hexahydropyrrolo[1′,2′:4,5]pyrazino[2,3-c]pyridazin-8-yl)oxy)-2-methylpyridin-3-yl)methyl)piperazin-1-yl)-1-oxoisoindolin-2-yl)piperidine-2,6-dione] were less than 100 nM, more than 75%, less than 100 nM and more than 75%.
Taken in the same sequence, the figures for `O=C1CCC(N2Cc3ccc(N4CCN(Cc5cnc(O[C@H]6CN7c8cc(-c9cccc(F)c9O)nnc8NC[C@]7(C(F)F)C6)c(F)c5)CC4)cc3C2=O)C(=O)N1` (stereo partly drawn) [Example 54, 3-(6-(4-((6-(((6aS,8R)-6a-(difluoromethyl)-2-(3-fluoro-2-hydroxyphenyl)-5,6,6a,7,8,9-hexahydropyrrolo[1′,2′:4,5]pyrazino[2,3-c]pyridazin-8-yl)oxy)-5-fluoropyridin-3-yl)methyl)piperazin-1-yl)-1-oxoisoindolin-2-yl)piperidine-2,6-dione] were less than 100 nM, more than 75%, less than 100 nM and 50 to 75%.
The matching figures for `O=C1CCC(N2Cc3ccc(N4CCN(Cc5cnc(O[C@H]6CN7c8cc(-c9cccc(F)c9O)nnc8NC[C@@]7(C(F)F)C6)c(F)c5)CC4)cc3C2=O)C(=O)N1` (stereo partly drawn) [Example 84, 3-(6-(4-((6-(((6aR,8R)-6a-(difluoromethyl)-2-(3-fluoro-2-hydroxyphenyl)-5,6,6a,7,8,9-hexahydropyrrolo[1′,2′:4,5]pyrazino[2,3-c]pyridazin-8-yl)oxy)-5-fluoropyridin-3-yl)methyl)piperazin-1-yl)-1-oxoisoindolin-2-yl)piperidine-2,6-dione]: less than 100 nM, more than 75%, 100 to 1000 nM and less than 50%.
Consider `Cc1cc(O[C@H]2CN3c4cc(-c5cccc(F)c5O)nnc4NC[C@@]3(C)C2)ncc1CN1CCN(c2ccc3c(c2)C(=O)N(C2CCC(=O)NC2=O)C3)CC1` (stereo partly drawn) [Example 55, 3-(6-(4-((6-(((6aR,8R)-2-(3-fluoro-2-hydroxyphenyl)-6a-methyl-5,6,6a,7,8,9-hexahydropyrrolo[1′,2′:4,5]pyrazino[2,3-c]pyridazin-8-yl)oxy)-4-methylpyridin-3-yl)methyl)piperazin-1-yl)-1-oxoisoindolin-2-yl)piperidine-2,6-dione], for which, on SMARCA2, the DC50 was less than 100 nM and the Dmax is more than 75%. At SMARCA4, the DC50 was less than 100 nM and the Dmax is 50 to 75%.
